Data on 13 molecules can be found in paper PMC8315004, “Discovery of Small-Molecule Inhibitors of SARS-CoV-2 Proteins Using a Computational and Experimental Pipeline” (Frontiers in Molecular Biosciences, 2021).

Usually inhibition stands for the relative decrease from the control value, in per cent. As a reminder, the IC50 is the concentration that inhibits the measured activity by half.

Several values for one entry are separate records, joined by “and”; a condition that tells them apart may be missing. Equal values may be shown once. Read-outs that look alike come from different tables or passages of the source.

In data set [1] the target is ACE2-RBD binding (SARS-CoV-2 RBD / human ACE2-Fc) (Severe acute respiratory syndrome coronavirus 2, UniProt P0DTC2). The data set is described as follows: biochemical. Particulars: for RMAX of ACE2-RBD binding: RBD pre-treated with 50 μM compound, DMSO only 0.3044; for ACE2-RBD binding versus inhibitor concentration (in words): RBD pre-treated with increasing concentrations; for inhibition at 50 µM: pre-treatment with 50 μM compound, from Rmax with vs without compound.

The target in data set [2] is T1, SARS-CoV-2 M^pro (Severe acute respiratory syndrome coronavirus 2, UniProt P0DTD1). The data set is described as follows: biochemical. Further details: inhibition: dose or concentration left out as unconfirmed. Particulars: for inhibition: initial screen, Table S4; for IC50: normalized FRET data, technical duplicates, end-point about 4 h, read-out: IC50 against Mpro, FRET values; for inhibition of the activity of Mpro in secondary screen: re-screen at 100 μM.

The nature of data set [3]: in vitro. As to conditions: African green monkey.
Data set [4] has as its system SARS-CoV-2 expressing the mNeon reporter gene. The data set is described as follows: microbe, parasite or virus in culture. The format is cell-based. Particulars: read-out: IC50 against SARS-CoV-2.
The test system of data set [5] is VSV-SARS2. The data set is described as follows: microbe, parasite or virus in culture. The format is cell-based. As to conditions: for IC50: read-out: IC50 against VSV-SARS2; for inhibition at 10 µM: read-out: inhibition of VSV-SARS2 infection (efficacy).
The target of data set [6] is T1, SARS-CoV-2 M^pro. The data set is described as follows: Mpro substrate cleavage by gel electrophoresis (SDS-PAGE) and densitometry. The format is biochemical. As to conditions: normalized gel densitometry data (red values of Figure 2D); read-out: IC50 against Mpro, gel electrophoresis and densitometry.
Data set [7] concerns Mpro. Particulars: slightly shorter fluorogenic substrate; ref Li et al., 2020; read-out: IC50 as Mpro inhibitor (literature); cited from earlier work.
Data set [8] deals with Mpro. Particulars: cited from earlier work.
[9] abbreviates: read-out: Normalized Percent FRET inhibition.
[10] abbreviates: Severe acute respiratory syndrome coronavirus 2, Vero, 18 h.
Setting [11] is: Vesicular stomatitis virus, Vero.

Regarding `C#Cc1cccc(Nc2ncnc3cc4c(cc23)OCCOCCOCCO4)c1` [Icotinib], in data set [1], the “RMAX of ACE2-RBD binding” value is on record as 0.2406, the “ACE2-RBD binding versus inhibitor concentration (in words)” value is recorded as “concentration-dependent decrease” and the inhibition at 50 µM was 21%. For the same molecule, in data set [2] (setting [9]), the inhibition is -0.628%.

For `C#C[C@]1(O)CC[C@H]2[C@@H]3CCC4=CC(=O)CCC4=C3C=C[C@@]21CC` [Gestrinone], in data set [1], the “RMAX of ACE2-RBD binding” value is on record as 0.2366, the “ACE2-RBD binding versus inhibitor concentration (in words)” value was “concentration-dependent decrease” and the inhibition at 50 µM turned out to be 22%.

`CS(=O)(=O)CCNCc1ccc(-c2ccc3ncnc(Nc4ccc(OCc5cccc(F)c5)c(Cl)c4)c3c2)o1` [Lapatinib]: the CC50 in data set [3] was found to be 69.6 µM. In data set [4] (setting [10]), the half-inhibitory concentration (IC50) was 31.1 µM. Moreover, in data set [5] (setting [11]), the IC50 is < 10 µM and the inhibition at 10 µM was ≥ 50%. In data set [5], the IC50 came out at 7.1 µM. For the same molecule, in data set [1], the “RMAX of ACE2-RBD binding” value is reported as 0.2344, the “ACE2-RBD binding versus inhibitor concentration (in words)” value is recorded as “concentration-dependent decrease” and the inhibition at 50 µM is 23%.

For `CN(C)c1cc(NC(=O)CNC(C)(C)C)c(O)c2c1C[C@H]1C[C@H]3[C@H](N(C)C)C(O)=C(C(N)=O)C(=O)[C@@]3(O)C(O)=C1C2=O` [Tigecycline], the IC50 in data set [6] is 29 µM; in data set [2], 21.5 µM and 20.5 µM. In data set [2] (setting [9]), the inhibition turned out to be 56.5%. The “inhibition of the activity of Mpro in secondary screen” value (“inhibition of the activity of Mpro” below) in data set [2] was “completely inhibit”.

In the case of `CCOc1nc2cccc(C(=O)OC(C)OC(=O)OC3CCCCC3)c2n1Cc1ccc(-c2ccccc2-c2nnn[nH]2)cc1` (stereo not drawn) [Candesartan Cilexetil], the CC50 in data set [3] was > 100 µM. Moreover, the IC50 in data set [6] is 77.1 µM; in data set [4] (setting [10]), ~10 µM; in data set [4], 10.4 µM; in data set [7], 2.8 µM; in data set [2], ~67 µM and 67.4 µM. The inhibition in data set [2] (setting [9]) was 153%. The “inhibition of the activity of Mpro” value in data set [2] is reported as “completely inhibit”.

Regarding `Cc1cc2nc3c(=O)[nH]c(=O)nc-3n(C[C@H](O)[C@H](O)[C@H](O)COP(=O)(O)OP(=O)(O)OC[C@H]3O[C@@H](n4cnc5c(N)ncnc54)[C@H](O)[C@@H]3O)c2cc1C` [Flavin Adenine Dinucleotide Disodium], the IC50 in data set [6] is > 100 µM. Also, in data set [2] (setting [9]), the inhibition came to 149%. Besides, in data set [2], the IC50 turned out to be 42.5 µM and the “inhibition of the activity of Mpro” value is listed as “completely inhibit”.

Turning to `Cc1ccc(NC(=O)c2ccc(CN3CCN(C)CC3)cc2)cc1Nc1nccc(-c2cccnc2)n1` [Imatinib], in data set [5] (setting [11]), the inhibition at 10 µM is ≥ 50%.

`CN(C)[C@@H]1C(O)=C(C(N)=O)C(=O)[C@@]2(O)C(O)=C3C(=O)c4c(O)cccc4[C@@](C)(O)[C@H]3C[C@@H]12` [Tetracycline]: the IC50 amounted to 38.2 µM in data set [6] and 20.8 µM in data set [2]. Besides, the inhibition in data set [2] (setting [9]) is 40.3%. Besides, in data set [2], the “inhibition of the activity of Mpro” value is listed as “completely inhibit”.

In the case of `COc1ccc(-c2ccc3cc(C(=O)O)ccc3c2)cc1C12CC3CC(CC(C3)C1)C2` [Adapalene], the CC50 in data set [3] was 60.7 µM. Besides, in data set [4] (setting [10]), the IC50 is ~10 µM. The 50% inhibitory concentration (IC50) in data set [4] came to 9.6 µM. For the same molecule, in data set [1], the “RMAX of ACE2-RBD binding” value turned out to be 0.2322, the “ACE2-RBD binding versus inhibitor concentration (in words)” value was “concentration-dependent decrease” and the inhibition at 50 µM turned out to be 23.8%. For the same molecule, the inhibition in data set [2] (setting [9]) came to 0.236%.

For the molecule `O=c1c2ccccc2[se]n1-c1ccccc1` [Ebselen], the “Mpro inhibitor potency (literature, in words)” value in data set [8] was “low micromolar”. Also, in data set [2] (setting [9]), the inhibition at 100 µM was 117%.

Consider `CC1(C)[C@@H](O)CC[C@]2(C)[C@H]3C(=O)C=C4[C@@H]5C[C@@](C)(C(=O)O)CC[C@]5(C)CC[C@@]4(C)[C@]3(C)CC[C@@H]12` [Enoxolone], for which, in data set [2] (setting [9]), the inhibition turned out to be 4.01%.

Take `CN(c1nccc(=O)[nH]1)C1CCN(c2nc3ccccc3n2Cc2ccc(F)cc2)CC1` [Mizolastine]: in data set [2] (setting [9]), the inhibition is -0.317%.

Turning to `C=CC[C@@H]1/C=C(\C)C[C@H](C)C[C@H](OC)[C@H]2O[C@@](O)(C(=O)C(=O)N3CCCC[C@H]3C(=O)O[C@H](/C(C)=C/[C@@H]3CC[C@@H](O)[C@H](OC)C3)[C@H](C)[C@@H](O)CC1=O)[C@H](C)C[C@@H]2OC` [Tacrolimus], the inhibition in data set [2] (setting [9]) was -0.417%.
